Measurements published in patent US7348160B2, “Phosphoamidase assay” (Merck Patent GmbH, priority 2002, dated 2008).
Where two headings read alike, the source gives them in different places.

Experiments:
[1] = molecular target: T1, PHP1 (Homo sapiens, UniProt Q9NRX4); assay: pH-dependence of conversion of fluorogenic and chromogenic substrates by PHP1; type: biochemical; conditions: for acceptance as substrate by PHP1: pH 5-9, 0.1 μM PHP1; for turnover rate by PHP1 in more alkaline media: pH above the maximum, up to pH 9
T1 sequence (Q9NRX4 1-125): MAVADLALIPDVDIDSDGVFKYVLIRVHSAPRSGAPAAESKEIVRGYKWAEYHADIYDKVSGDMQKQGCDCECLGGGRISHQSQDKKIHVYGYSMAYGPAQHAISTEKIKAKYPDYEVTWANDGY
From the text: Because it is well known that the use of phospho fluorophores like DIFMUP, MUP, DDAO or FDP as phosphatase substrates have certain limitations due to the compatibility of the substrate pKa-values with the pH-optima of the respective phosphatase, the pH-dependence of the PHP1 reactivity towards the aforementioned fluorogenic substrates is to be determined. As shown in FIG. 1 the pH is varied from pH=5-9 in steps of 0.5 pH-units. In order to avoid undesired fluorescence flattening effects due to high absorption by the accumulating reaction product the initial reaction velocity is used as relative measure for the pH-dependence of PHP1-reactivity towards the selected substrate.
To start the reaction PHP1 was added from a pre dilution in the respective reaction buffer to yield a final concentration of 0.1 μM. The reaction was monitored by recording the increase in relative fluorescence at the respective fluorescence emission maxima (Fluoromax Gemini XL microplate reader).

[2] = molecular target: T2, T-cell tyrosine phosphatase (Homo sapiens, UniProt P17706); conditions: from literature (Kerby et al. 2001); cited from earlier work
T2 sequence (P17706 1-415): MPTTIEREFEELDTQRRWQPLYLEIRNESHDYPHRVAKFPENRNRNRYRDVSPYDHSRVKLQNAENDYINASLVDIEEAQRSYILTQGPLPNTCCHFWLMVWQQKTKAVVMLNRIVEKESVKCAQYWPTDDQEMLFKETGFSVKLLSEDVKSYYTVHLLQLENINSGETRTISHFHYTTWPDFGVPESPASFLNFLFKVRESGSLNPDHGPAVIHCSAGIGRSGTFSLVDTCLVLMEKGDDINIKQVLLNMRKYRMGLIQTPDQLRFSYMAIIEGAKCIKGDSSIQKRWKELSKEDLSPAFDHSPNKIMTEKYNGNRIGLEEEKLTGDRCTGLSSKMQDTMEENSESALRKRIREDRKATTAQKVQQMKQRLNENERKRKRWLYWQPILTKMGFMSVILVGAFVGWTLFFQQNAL

[3] = molecular target: T1, PHP1; assay: Kinetic analysis of the conversion of FDP and DiFMUP by PHP1; type: biochemical; conditions: pH 7.0, 0.1 μM PHP1
Method: The KM-values for DiFMUP and FDP can be approximated by recording the initial reaction velocity in dependence of the substrate concentration, as observed by the increase in relative fluorescence at the respective fluorescence emission maxima upon addition of PHP1. […] This effect limits the range of substrate variation. For FDP concentrations >20 μM the signal quenching disturbs reaction rate measurements detrimentally. […] Measurements for DiFMUP are limited to concentrations below 500 μM.
To start the reaction PHP1 was added from a stock solution to a final concentration of 0.1 in μM. The reaction was monitored by recording the increase in relative fluorescence at the respective fluorescence emission maxima in an SLM fluorescence spectrometer. To allow for quantification the fluorescence signal was normalised using a standard curve recorded for a serial dilution of fully dephosphorylated DiFMUP and FDP respectively. All recordings were carried out at the same PM-voltage and integration time with correction for the relative signal gain.

[4] = molecular target: T1, PHP1; assay: Screening assay for inhibitors or activators of PHP1 with DiFMUP substrate; type: biochemical
Method: In order to test whether the phosphoamidase and protein phosphoamidase substrates of the present invention are suitable for the for identification of inhibitors or activators of these proteins, the activity of PHP1 was determined with the substrate DiFMUP in presence of bisperoxo-(bipyridine)-oxovanadate [(bp)V(bipy)], a well characterized inhibitor of protein phosphotyrosine phosphatase(FIG. 9). The inhibitor concentration varied from 0.01 to 30 μM, the enzyme concentration was kept at 0.1 μM and substrate concentration at 50 μM. After incubation for 15 min at room temperature the fluorescence was detected at 450 nm on excitation at 360 nm.
The reaction mixtures for inhibitor screening were prepared by serial 2 fold dilution of the inhibitor bpV(bipy) (Alexis Biochemicals San Diego) starting at 60 μM into 50 μl of the assay buffer consisting of 25 mM Hepes pH=7, 20 mM NaCl, 1 mM MgCl2, 0.01 mg/ml BSA. In a next step 50 μl of a solution of 0.3 μM PHP1 in assay buffer was added to each well and incubated for 5 min at room temperature. In order to initiate the reaction a pre dilution of 50 μM DiFMUP-substrate in assay-buffer was rapidly added to all wells. The reaction was monitored by recording the increase in relative fluorescence at the respective fluorescence emission maxima (Fluoromax Gemini XL microplate reader). The relative activity was calculated using the RFU derived from a control reaction without inhibitor.

[5] = 0.1 μM PHP1, 50 μM DiFMUP, inhibitor 0.01 to 30 μM

turnover rate by PHP1 in more alkaline media [1] | Compound | acceptance as substrate by PHP1 [1] | also measured
decrease in turnover rate | Cc1cc(=O)oc2c(F)c(OP(=O)(O)O)c(F)cc12 [DiFMUP, 6,8-difluoro-4-methylum-belliferyl phosphate] | accepts | Km [2]: 20 µM; Km ([3]; estimated from Lineweaver-Burk plot, read-out: KM-value for PHP1): > 1000 µM
– | O=[N+]([O-])c1ccc(OP(=O)(O)O)cc1 [pNPP, para-nitrophenol phosphate] | not recognised and processed by PHP1 at any pH | –
– | bisperoxo-(bipyridine)-oxovanadate [(bp)V(bipy)] | – | concentration showing inhibitory effect on PHP1 [4, 5]: above 10 μM; inhibition of PHP1 activity [4, 5]: reproducible and clearly dose-dependent inhibition; activation of PHP1 activity ([4]; equimolar concentrations (0.1 μM PHP1), 50 μM DiFMUP): by a factor of two
second distinct maximum | fluorescein diphosphate [FDP] | accepts | Km ([3]; non-linear curve fit, high uncertainty, read-out: Michaelis constant KM for PHP1): ~20 µM

Compound | turnover rate by PHP1 in more alkaline media [1] | acceptance as substrate by PHP1 [1] | also measured
CC1(C)C2=C(Cl)C(=O)C(Cl)=CC2=Nc2ccc(OP(=O)(O)O)cc21 [DDAO, 9H-(1,3-dichloro-9,9-dimethyl-acridin-2-one-7-yl)phosphate] | stays relatively constant | accepts | –
